In PMC3495945, “Org 214007-0: A Novel Non-Steroidal Selective Glucocorticoid Receptor Modulator with Full Anti-Inflammatory Properties and Improved Therapeutic Index” (PLoS ONE, 2012):

Assays:
[1] = target: T1, recombinant human glucocorticoid receptor (GR) (Homo sapiens, UniProt P04150); assay: Glucocorticoid receptor fluorescence polarisation competitor binding assay; conditions: fluorescence polarization competitor binding; mean (±SD); read-out: Ki, competitive binding
T1 construct: purchased Panvera P2816
T1 sequence (P04150 whole entry): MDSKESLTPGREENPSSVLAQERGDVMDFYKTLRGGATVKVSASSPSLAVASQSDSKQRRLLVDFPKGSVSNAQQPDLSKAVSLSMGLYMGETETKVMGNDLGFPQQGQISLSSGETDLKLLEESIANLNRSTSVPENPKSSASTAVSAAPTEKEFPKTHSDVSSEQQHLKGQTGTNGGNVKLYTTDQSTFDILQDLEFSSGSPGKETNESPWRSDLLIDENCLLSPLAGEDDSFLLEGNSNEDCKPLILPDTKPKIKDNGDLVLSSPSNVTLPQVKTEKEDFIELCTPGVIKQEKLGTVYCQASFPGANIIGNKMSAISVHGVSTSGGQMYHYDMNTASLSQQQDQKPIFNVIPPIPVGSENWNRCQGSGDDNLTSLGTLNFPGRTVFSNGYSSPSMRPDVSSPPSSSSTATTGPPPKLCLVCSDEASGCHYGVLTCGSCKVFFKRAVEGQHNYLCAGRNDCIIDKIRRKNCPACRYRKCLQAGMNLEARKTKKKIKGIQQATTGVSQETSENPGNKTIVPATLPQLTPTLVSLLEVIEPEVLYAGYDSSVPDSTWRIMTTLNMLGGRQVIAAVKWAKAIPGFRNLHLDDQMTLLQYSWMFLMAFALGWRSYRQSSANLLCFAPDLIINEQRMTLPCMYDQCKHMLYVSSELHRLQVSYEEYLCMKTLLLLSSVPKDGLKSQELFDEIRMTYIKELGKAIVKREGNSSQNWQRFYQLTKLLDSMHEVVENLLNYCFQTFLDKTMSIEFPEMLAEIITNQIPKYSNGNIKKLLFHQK
Excerpt: (for more detailed information see Supportive Information) (SI text).

[2] = target: T2, human estrogen receptor alpha (ERα) (Homo sapiens, UniProt P03372); assay: CHO steroid receptor reporter assay, ERα / rat oxytocin-Luc; assay type: cell-based
T2 construct: expressed in transfected cells; host or cells: CHO K1
T2 sequence (P03372 1-595): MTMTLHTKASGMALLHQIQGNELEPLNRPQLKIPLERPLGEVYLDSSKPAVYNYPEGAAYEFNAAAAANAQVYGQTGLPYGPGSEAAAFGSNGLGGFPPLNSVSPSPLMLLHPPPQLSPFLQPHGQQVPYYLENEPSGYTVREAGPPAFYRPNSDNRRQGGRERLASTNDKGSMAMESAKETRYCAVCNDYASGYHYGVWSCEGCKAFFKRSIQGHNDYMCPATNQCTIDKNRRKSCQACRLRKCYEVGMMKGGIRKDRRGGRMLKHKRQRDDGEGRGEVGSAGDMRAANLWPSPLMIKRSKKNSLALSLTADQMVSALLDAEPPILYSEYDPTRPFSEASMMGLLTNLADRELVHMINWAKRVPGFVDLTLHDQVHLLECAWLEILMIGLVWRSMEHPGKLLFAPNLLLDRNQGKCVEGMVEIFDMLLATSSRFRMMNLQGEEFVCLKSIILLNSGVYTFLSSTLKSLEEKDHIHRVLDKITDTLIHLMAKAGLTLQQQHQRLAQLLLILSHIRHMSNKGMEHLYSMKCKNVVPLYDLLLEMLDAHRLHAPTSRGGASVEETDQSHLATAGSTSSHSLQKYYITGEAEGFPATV
Excerpt: (§1) For monitoring both human steroid receptor agonistic as well as antagonistic activity of compounds, Chinese hamster ovary (CHO) K1 cells stably co-transfected with the specific human steroid receptor and its respective reporter construct were used (as previously described).
(§2) For human glucocorticoid receptor (GR)-specific activity CHO-GR B4.8 cells containing both recombinant human GR as well as a reporter construct consisting of the mouse mammary tumor virus (MMTV) promotor and the luciferase reporter gene, were used. Compound was incubated alone (in the agonistic setup) or with 50 nM dexamethasone (in the antagonistic setup) overnight. Hereafter, 200 µl medium was removed and 50 µl luciferine substrate solution from the LucLite luminescence kit (Packard, Meriden, USA) was added. […] Percentage maximal antagonistic efficacy was related to the maximal antagonistic efficacy of reference GR antagonist Org 34116. Similar procedures were followed for the other human steroid receptor assays (for more detailed information see Supportive Information) (SI text).
(§3) Similar procedures were followed for the other human steroid receptor assays containing combinations of human progesterone receptor B (PR-B) and MMTV-Luc, human androgen receptor (AR) and MMTV-Luc, human chimeric glucocorticoid-mineralocorticoid receptor (GGM, Trapp et al. (1994), Neuron 13: 1457) and MMTV-Luc, human estrogen receptor alpha (ERα) and rat oxytocin-Luc (45), and human estrogen receptor beta (ERβ) and rat oxytocin-Luc, respectively.

[3] = target: T3, human progesterone receptor B (PR-B) (Homo sapiens, UniProt P06401); assay: CHO steroid receptor reporter assay, PR-B / MMTV-Luc; assay type: cell-based
T3 construct: expressed in transfected cells; host or cells: CHO K1
T3 sequence (P06401 1-933): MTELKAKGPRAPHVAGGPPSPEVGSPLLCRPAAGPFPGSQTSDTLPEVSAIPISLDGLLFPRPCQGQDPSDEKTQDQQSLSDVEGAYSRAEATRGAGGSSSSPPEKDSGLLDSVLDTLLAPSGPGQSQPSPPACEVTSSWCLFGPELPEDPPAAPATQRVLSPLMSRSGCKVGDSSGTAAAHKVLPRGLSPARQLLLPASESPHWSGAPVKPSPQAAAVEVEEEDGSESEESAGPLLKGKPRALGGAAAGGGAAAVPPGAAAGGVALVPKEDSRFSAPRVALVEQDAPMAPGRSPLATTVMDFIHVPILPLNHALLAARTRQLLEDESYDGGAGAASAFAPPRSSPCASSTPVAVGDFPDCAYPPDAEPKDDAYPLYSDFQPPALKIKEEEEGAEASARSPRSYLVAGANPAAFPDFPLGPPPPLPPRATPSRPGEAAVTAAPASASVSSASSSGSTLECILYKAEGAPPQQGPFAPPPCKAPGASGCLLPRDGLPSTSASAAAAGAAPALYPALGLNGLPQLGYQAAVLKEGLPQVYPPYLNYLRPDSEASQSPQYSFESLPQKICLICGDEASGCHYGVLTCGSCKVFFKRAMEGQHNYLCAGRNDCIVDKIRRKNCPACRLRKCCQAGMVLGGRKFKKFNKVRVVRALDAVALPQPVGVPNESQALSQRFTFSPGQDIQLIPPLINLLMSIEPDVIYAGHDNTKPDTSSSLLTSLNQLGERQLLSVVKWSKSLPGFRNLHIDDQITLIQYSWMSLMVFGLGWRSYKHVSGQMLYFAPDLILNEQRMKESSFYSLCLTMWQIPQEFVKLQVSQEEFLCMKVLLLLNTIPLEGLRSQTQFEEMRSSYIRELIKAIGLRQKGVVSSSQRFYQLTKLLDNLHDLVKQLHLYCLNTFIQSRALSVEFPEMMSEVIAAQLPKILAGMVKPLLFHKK
Excerpt: as §1, §2, §3

Ki [1]: 2.2 nM | EC50 ([2]; read-out: EC50 (agonist)): > 100 nM | IC50 ([2]; read-out: IC50 (antagonist)): > 1000 nM | % agonist potency ([2]; relative to reference compound): <0.01% | % antagonist potency ([2]; relative to reference compound): <1.86% | IC50 ([3]; mean (±SD), read-out: IC50 (antagonist)): 19.4 nM | Emax ([3]; read-out: % efficacy (antagonist)): > 87% | EC50 ([3]; read-out: EC50 (agonist)): > 100 nM | % agonist potency ([3]; relative to reference compound): <0.03% | % antagonist potency ([3]; relative to reference compound, mean (±SD)): 0.46 (±0.2) %
SMILES: Cc1nnsc1C(=O)N[C@H]1CCN2c3ccc(C#N)cc3[C@@H](C)c3ccccc3[C@@H]2C1 [Org 214007-0]
